Experimental data from patent US20230414612A1, “PHARMACEUTICAL COMPOSITION COMPRISING A CAP-DEPENDENT ENDONUCLEASE INHIBITOR” (TaiGen Biotechnology Co., Ltd., priority 2022, published 2023).
≈ marks a conversion by molar mass, not a printed value.

Assays:
[1] = test system: influenza virus (A/PR/8/34); experiment: In vivo influenza virus infection mouse model (survival rate, body weight change); conditions: 5 mg/kg, oral, BALB/c mouse infected with A/PR/8/34
Experimental: (§1) The term “therapeutically effective amount” refers to the amount or dose of an active compound or salt thereof that is sufficient to prevent development of, or alleviate to some extent, one or more of the symptoms of the disorder, disease, or condition being treated. […] In addition, the effect of Compound A on influenza virus growth in lungs of BALB/c mice infected with low infectious dose 100 pfu/mouse of A/PR/8/34 at one-day post-infection was conducted. […] Therefore, based on the results of these preliminary in vivo animal studies, it is estimated that the reasonable therapeutically effective amount of the compound of Formula (I) or a pharmaceutically acceptable salt thereof for human can be about 5-200 mg, about 5-150 mg, about 5-100 mg, about 10-80 mg, about 10-40 mg, about 10-30 mg, about 10-20 mg, about 5-10 mg, about 5-20 mg, about 20-40 mg, or about 40-80 mg. For example but not limited thereto, the therapeutically effective amount of the compound of Formula (I) or a pharmaceutically acceptable salt thereof is 5 mg, 10 mg, 15 mg, 20 mg, 25 mg, 30 mg, 35 mg, 40 mg, 45 mg, 50 mg, 55 mg, 60 mg, 65 mg, 70 mg, 75 mg, 80 mg, 85 mg, 90 mg, 95 mg, 100 mg, 105 mg, 110 mg, 115 mg, 120 mg, 125 mg, 130 mg, 135 mg, 140 mg, 145 mg, 150 mg, 155 mg, 160 mg, 165 mg, 170 mg, 175 mg, 180 mg, 185 mg, 190 mg, 195 mg, or 200 mg.

[2] = Stability study of Compound A and amorphous solid dispersions (total impurity level, TRS %); format: physicochemical
Experimental: The amorphous solid dispersions were stored at 4° C. (closed) or 40° C./75% RH (closed and open state). After 10 days or 4 weeks, samples were observed by camera, characterized by XRPD and analyzed by HPLC for purity as well as kinetic solubility. All the samples for closed storage conditions were put into clear glass vials with gaskets and screwed caps. All the samples for open storage conditions were put into clear glass vials with cap, while the month of vials was covered by aluminium foil with pinholes to avoid cross-contamination.
The sample number in TABLE 2 corresponds to the sample number in TABLE 1.

[3] = 14-day repeated-dose oral toxicity study; format: in vivo; conditions: 300 mg/kg/day
Experimental: as §1

[4] = Dissolution assessment: solubility in FaSSIF; format: physicochemical
Experimental: An amount of Compound A (about 6 mg) and amorphous solid dispersion (equivalent to around 6 mg Compound A) were weighed into an 8 ml bottle, and 6 ml FaSSIF (Fasted state simulated intestinal fluid) was added (target concentration 1.0 mg/ml). Then the suspensions were stirred at thermomixer at 37° C. under 600 rpm 200 μL of suspensions were withdrawn at setting time (such as 5 min) and then centrifuged at 14000 rpm for 4 min. After that, 100 μL of supernatant was diluted with CAN five times to prevent precipitation, and was analyzed by HPLC.
FaSSIF was prepared by following steps: 1) Place 0.1024 g sodium hydroxide, 0.7518 g sodium dihydrogen phosphate anhydrous and 1.5470 g sodium chloride in a 250 mL volumetric flask, add about 225 mL water, and adjust the pH to 6.5 with 1N sodium hydroxide or 1N hydrochloric acid. Make up to volume (250 mL) with pure water. 2) Place and dissolve 0.4480 g SIF Powder Original with 100 mL of buffer (from step 1) in a 200 mL volumetric flask, add water to volume and mix well.

[5] = test system: influenza virus A/PR/8/34; experiment: Influenza virus growth in lungs of infected BALB/c mice; format: in vivo; conditions: 5 and 25 mg/kg; 100 pfu/mouse A/PR/8/34; one-day post-infection
Experimental: as §1

COC(=O)OCOc1c2n(ccc1=O)N([C@H]1c3ccccc3CSc3c1ccc(F)c3F)CC1(CC1)C2=O [Compound A, [1-((11S)-7,8-difluoro(6H,11H-dibenzo[c,f]thiepin-11-yl))-4,6-dioxospiro[1,2,3,9-tetrahydropyridino[1,2-e]pyridazine-3,1′-cyclopropane]-5-yloxy]methyl methoxyformate]
antiviral efficacy on body weight change [1]: good antiviral efficacy
antiviral efficacy on survival rate [1]: good antiviral efficacy
4° C. Closed for 4 wks TRS % ([2]; 4° C., closed, 4 weeks): 0.76%
40° C./75% RH Closed for 4 wks TRS % ([2]; 40° C./75% RH, closed, 4 weeks): 0.86%
40° C./75% RH Open for 4 wks TRS % ([2]; 40° C./75% RH, open, 4 weeks (cells without #)): 0.82%
Initial TRS % ([2]; initial, total relative substances by HPLC): 0.79%
deaths or toxic effect [3]: did not cause deaths or have toxic effect
Solubility, 5 min ([4]; FaSSIF, 37° C., 600 rpm, target concentration 1.0 mg/ml, 5 min): 4.95 µg/mL (≈ 9.16 µM)
Solubility, 15 min ([4]; FaSSIF, 37° C., 600 rpm, target concentration 1.0 mg/ml, 15 min): 4.89 µg/mL (≈ 9.05 µM)
aqueous solubility ([4]; statement in words): low aqueous solubility
Virus titers in lungs vs vehicle treated group [5]: significantly lower
